Laboratory results taken from the supplement of paper PMC10307832.

Legend:
Assay in all cases: relative viability (nuclei count vs DMSO), 5 days (fraction); higher = more cells survive
IU1-47 + OSI-027 = compound: CC1=CC(=C(N1C2=CC=C(C=C2)Cl)C)C(=O)CN3CCCCC3 [IU1-47] + COc1cccc2cc(-c3nc([C@H]4CC[C@H](C(=O)O)CC4)n4ncnc(N)c34)[nH]c12 [OSI-027] (partner 0.5 µM)
Summary of the method: (§1)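 Lung cancer cell lines, seeded in 1536-well plates, were treated the following day by pin tool with a single drug or with five library-drug doses (not always all listed) in √10 steps on top of a fixed anchor-drug dose. Cells were fixed and nuclei stained in one step after 5 days, and nuclei were counted. Relative viability is the nuclei count for treated wells divided by that for vehicle wells, reported as medians of duplicate plates.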

IU1-47 + Vorinostat = compound: CC1=CC(=C(N1C2=CC=C(C=C2)Cl)C)C(=O)CN3CCCCC3 [IU1-47] + O=C(CCCCCCC(=O)Nc1ccccc1)NO [Vorinostat] (partner 1 µM)
Summary of the method: as §1

FG-4592 + Navitoclax = compound: Cc1nc(C(=O)NCC(=O)O)c(O)c2ccc(Oc3ccccc3)cc12 [FG-4592] + CC1(C)CCC(c2ccc(Cl)cc2)=C(CN2CCN(c3ccc(C(=O)NS(=O)(=O)c4ccc(N[C@H](CCN5CCOCC5)CSc5ccccc5)c(S(=O)(=O)C(F)(F)F)c4)cc3)CC2)C1 [Navitoclax] (partner 0.5 µM)
Summary of the method: as §1

FG-4592 + Linsitinib = compound: Cc1nc(C(=O)NCC(=O)O)c(O)c2ccc(Oc3ccccc3)cc12 [FG-4592] + C[C@]1(O)C[C@@H](c2nc(-c3ccc4ccc(-c5ccccc5)nc4c3)c3c(N)nccn32)C1 [Linsitinib] (partner 1 µM)
Summary of the method: as §1

| Cell Line | relative viability (IU1-47 + OSI-027; first compound 0.08 µM) | relative viability (IU1-47 + OSI-027; first compound 0.253 µM) | relative viability (IU1-47 + OSI-027; first compound 0.8 µM) | relative viability (IU1-47 + OSI-027; first compound 2.53 µM) | relative viability (IU1-47 + OSI-027; first compound 8 µM) | relative viability (IU1-47 + Vorinostat; first compound 0.08 µM) | relative viability (IU1-47 + Vorinostat; first compound 0.253 µM) | relative viability (IU1-47 + Vorinostat; first compound 0.8 µM) | relative viability (IU1-47 + Vorinostat; first compound 2.53 µM) | relative viability (IU1-47 + Vorinostat; first compound 8 µM) | relative viability (FG-4592 + Navitoclax; first compound 0.08 µM) | relative viability (FG-4592 + Navitoclax; first compound 0.253 µM) | relative viability (FG-4592 + Navitoclax; first compound 0.8 µM) | relative viability (FG-4592 + Navitoclax; first compound 2.53 µM) | relative viability (FG-4592 + Navitoclax; first compound 8 µM) | relative viability (FG-4592 + Linsitinib; first compound 0.08 µM) | relative viability (FG-4592 + Linsitinib; first compound 0.253 µM) | relative viability (FG-4592 + Linsitinib; first compound 0.8 µM) | relative viability (FG-4592 + Linsitinib; first compound 2.53 µM) | relative viability (FG-4592 + Linsitinib; first compound 8 µM) |
| --- | --- | --- | --- | --- | --- | --- | --- | --- | --- | --- | --- | --- | --- | --- | --- | --- | --- | --- | --- | --- |
| 201T | 0.747 | 0.784 | 0.886 | 0.813 | 0.832 | 1.08 | 1.03 | 1.07 | 0.356 | 0.915 | 1.14 | 1.19 | 1.21 | 1.18 | 1.22 | 0.943 | 0.963 | 0.897 | 1.08 | 1.02 |
| A549 | – | – | – | – | – | – | – | – | – | – | 1.25 | 1.21 | 1.27 | 1.28 | 1.08 | 0.476 | 0.549 | – | 0.546 | 0.588 |
| A-427 | 0.454 | 0.472 | 0.453 | – | 0.463 | 0.894 | 0.847 | 0.841 | 0.883 | 0.836 | 0.829 | 0.739 | 0.802 | 1.08 | 0.914 | 1.06 | 1.05 | 1.06 | 1.14 | 1.1 |
| ABC-1 | 0.462 | 0.504 | 0.43 | – | 0.379 | 1.32 | 1.08 | 0.987 | – | 1.06 | – | – | – | – | – | 0.92 | – | 0.722 | 0.8 | 0.844 |
| BEN | 0.294 | 0.302 | 0.296 | – | 0.268 | 0.605 | 0.653 | 0.681 | 0.564 | 0.544 | 0.0578 | 0.0857 | 0.0654 | 0.0822 | 0.0636 | 0.85 | 0.748 | 0.692 | 0.934 | 0.602 |
| CAL-12T | 0.764 | 0.635 | 0.675 | 0.631 | 0.683 | 0.826 | 0.759 | 0.711 | 0.747 | 0.841 | 1.22 | 1.18 | 1.33 | 1.05 | 0.764 | 0.709 | 0.798 | 0.836 | 0.775 | 0.716 |
| COR-L23 | 0.831 | 0.977 | 0.845 | 0.901 | 0.563 | 0.383 | 0.514 | 0.439 | 0.466 | 0.404 | 0.924 | 0.98 | 1.14 | 0.909 | 0.932 | 0.832 | 0.746 | 0.915 | 0.913 | 0.912 |
| COR-L 105 | 0.746 | 0.634 | 0.711 | 0.581 | 0.57 | 1.02 | 1.01 | 0.779 | 0.745 | 0.958 | 0.777 | 0.709 | 0.919 | 0.595 | 0.74 | 0.897 | 0.738 | 1.12 | 1.08 | 0.997 |
| Calu-6 | – | – | – | – | – | – | – | – | – | – | 0.795 | 0.734 | 0.974 | 0.914 | 0.87 | 0.863 | 0.942 | 0.941 | 0.859 | 0.993 |
| ChaGo-K-1 | 0.485 | 0.535 | 0.589 | 0.41 | 0.489 | 0.835 | 0.766 | 0.806 | 0.623 | 0.717 | 1.04 | 1.03 | 0.708 | 1.15 | 0.54 | – | – | – | – | – |
| EBC-1 | – | – | – | – | – | – | – | – | – | – | 0.469 | 0.389 | 0.425 | 0.493 | 0.397 | 0.88 | 0.905 | 0.824 | 0.862 | 0.825 |
| EKVX | 0.858 | 0.862 | 0.726 | 0.658 | 0.828 | 0.951 | 0.632 | 0.846 | 0.573 | 0.631 | 0.848 | 0.813 | 0.855 | 1.09 | 1.04 | 1.01 | 0.916 | 0.948 | 0.989 | 0.989 |
| EMC-BAC-2 | 0.392 | 0.368 | 0.374 | 0.38 | 0.362 | 0.456 | 0.488 | 0.42 | 0.442 | 0.419 | 1.13 | 1.12 | 1.11 | 1.16 | 1.09 | 0.846 | 0.767 | 0.767 | 0.836 | 0.833 |
| EPLC-272H | 0.326 | 0.325 | 0.253 | – | 0.259 | 0.382 | 0.55 | 0.494 | 0.394 | 0.461 | 1.15 | 1.09 | 0.775 | 1.05 | 1.08 | 1.09 | 1.06 | 0.859 | 1.18 | 1.03 |
| H3255 | 0.654 | 0.675 | 0.624 | 0.465 | 0.561 | 0.918 | 0.883 | 1.02 | – | 0.669 | 0.554 | 0.387 | 0.523 | 0.596 | 0.6 | 0.963 | 0.868 | 0.896 | 1.07 | 0.959 |
| HARA | 0.554 | 0.406 | 0.456 | – | 0.413 | 0.421 | 0.679 | 0.646 | 0.575 | 0.479 | 1.15 | 1.09 | – | 1.13 | 1.15 | 0.955 | 0.881 | – | 0.996 | 1.03 |
| HCC-15 | 0.709 | 0.722 | 0.685 | 0.388 | 0.616 | 0.885 | 0.894 | 0.946 | 0.766 | 0.731 | 0.758 | 0.698 | 0.686 | 0.714 | 0.744 | 0.874 | 0.805 | 0.93 | 0.831 | 0.914 |
| HCC-44 | 0.403 | 0.483 | 0.593 | 0.434 | 0.389 | 1.16 | 1.09 | 1.11 | 1.13 | 1.09 | 1.01 | 0.935 | 0.997 | 1.11 | 1.03 | 0.671 | 0.603 | 0.569 | 0.732 | 0.661 |
| HCC-78 | 0.38 | 0.354 | 0.337 | 0.42 | 0.353 | 0.557 | 0.432 | 0.463 | 0.397 | 0.438 | 0.904 | 0.766 | 0.442 | 0.773 | 0.806 | 0.599 | 0.476 | 0.374 | 0.494 | 0.506 |
